One assay concerns the target T1, FLK-1 receptor (Mus musculus, UniProt P35918).
T1 construct: expressed in transfected cells; host or cells: NIH3T3 C7#3 cells
Briefly: ELISA assay measuring the kinase activity of the FLK-1 receptor in cells engineered to express FLK-1. Format: cell-based. Particulars: FLK-1 expressing NIH3T3 C7#3 cells, VEGF stimulated; for inhibition at 100 µM: compound at 100 μM; for IC50: cells without % or + sign. How it is done:
An ELISA assay was conducted to measure the kinase activity of the FLK-1 receptor and more specifically, the inhibition or activation of TK activity on the FLK-1 receptor. Specifically, the following assay was conducted to measure kinase activity of the FLK-1 receptor in cells genetically engineered to express FLK-1.
(11) NIH3T3 C7#3 Cells (FLK-1 expressing cells);
The following protocol was used for conducting the assay:
1. Coat Corning 96-well elisa plates with 1.0 μg per well Cappel Anti-rabbit IgG antibody in 0.1 M Na2CO3 pH 9.6. Bring final volume to 150 μL per well. Coat plates overnight at 4° C. Plates can be kept up to two weeks when stored at 4° C.
2. Grow cells in Growth media (DMEM, supplemental with 2.0 mM L-Glutamine, 10% FBS) in suitable culture dishes until confluent at 37° C., 5% CO2.
3. Harvest cells by trypsinization and seed in Corning 25850 polystyrene 96-well roundbottom cell plates, 25.000 cells/well in 200 μL of growth media.
4. Grow cells at least one day at 37° C., 5% CO2.
5. Wash cells with D-PBS 1×.
6. Add 200 μL/well of starvation media (DMEM, 2.0 mM 1-Glutamine, 0.1% FBS). Incubate overnight at 37° C., 5% CO2.
7. Dilute Compounds 1:20 in polypropylene 96 well plates using starvation media. Dilute dimethylsulfoxide 1:20 for use in control wells.
8. Remove starvation media from 96 well cell culture plates and add 162 μL of fresh starvation media to each well.
9. Add 18 μL of 1:20 diluted Compound dilution (from step 7) to each well plus the 1:20 dimethylsulfoxide dilution to the control wells (+/−VEGF), for a final dilution of 1:200 after cell stimulation. Final dimethylsulfoxide is 0.5%. Incubate the plate at 37° C., 5% CO2 for two hours.
10. Remove unbound antibody from ELISA plates by inverting plate to remove liquid. Wash 3 times with TBSW+0.5% ethanolamine, pH 7.0. Pat the plate on a paper towel to remove excess liquid and bubbles.
11. Block plates with TBSW+0.5% Ethanolamine, pH 7.0, 150 μL per well. Incubate plate thirty minutes while shaking on a microliter plate shaker.
12. Wash plate 3 times as described in step 10.
13. […] Bring final volume to 150 μL/well with TBSW+0.5% ethanolamine pH 7.0. Incubate plate for thirty minutes while shaking.
14. Add 180 μL starvation medium to the cells and stimulate cells with 20 μL/well 10.0 mM sodium ortho vanadate and 500 ng/mL VEGF (resulting in a final concentration of 1.0 mM sodium ortho vanadate and 50 ng/mL VEGF per well) for eight minutes at 37° C., 5% CO2. Negative control wells receive only starvation medium.
15. After eight minutes, media should be removed from the cells and washed one time with 200 μL/well PBS.
16. Lyse cells in 150 μL/well HNTG while shaking at room temperature for five minutes. HNTG formulation includes sodium ortho vanadate, sodium pyro phosphate and EDTA.
17. Wash ELISA plate three times as described in step 10.
18. Transfer cell lysates from the cell plate to ELISA plate and incubate while shaking for two hours. To transfer cell lysate pipette up and down while scrapping the wells.
19. Wash plate three times as described in step 10.
20. Incubate ELISA plate with 0.02 μg/well UB40 in TBSW+05% ethanolamine. Bring final volume to 150 μL/well. Incubate while shaking for 30 minutes.
21. Wash plate three times as described in step 10.
22. Incubate ELISA plate with 1:10,000 diluted EIA grade goat anti-mouse IgG conjugated horseradish peroxidase in TBSW+0.5% ethanolamine, pH 7.0. Bring final volume to 150 μL/well. Incubate while shaking for thirty minutes.
23. Wash plate as described in step 10.
24. Add 100 μL of ABTS/H2O2 solution to well. Incubate ten minutes while shaking.
25. Add 100 μL of 0.2 M HCl for 0.1 M HCl final to stop the color development reaction. Shake 1 minute at room temperature. Remove bubbles with slow stream of air and read the ELISA plate in an ELISA plate reader at 410 nm.
(§1) The IC50 values were measured for several of the compounds of the invention.
(In general: In an ELISA, binding on a coated surface is turned into a signal by an enzyme label.)

The target in the next assay is T2, EGFR protein (Homo sapiens, UniProt P00533).
T2 construct: Add 120 μL TBS to ELISA plate containing captured EGFR; endogenous in cells; host or cells: A431 cells (lysate, captured with SUMO1 anti-EGFR antibody)
Briefly: ELISA assay measuring the kinase activity of the EGF receptor (captured from A431 cell lysate). Format: biochemical. How it is done: The following protocol describes the reagents and procedures used to analyze protein tyrosine kinase activity on the EGFR protein.
2. SUMO1 monoclonal anti-EGFR antibody
All of the following steps are conducted at room temperature unless it is specifically indicated. All ELISA plate washing is by rinsing 4× with TBST.
1. Coat Corning 96 well ELISA plates with 0.5 μ/well of SUMO1 in a volume of 100 μL PBS. Store overnight at 4° C.
2. Remove unbound SUMO1 by inverting plate to remove liquid. Wash plates with distilled water. Pat plate on a paper towel to remove excess liquid and bubbles
3. Add 150 μL of Blocking Buffer to each well. Incubate while shaking on a microliter plate shaker at room temperature for 30 min.
4. Wash 3× with deionized water, then once with TBST. Pat plate on a paper towel to remove excess liquid and bubbles.
5. Dilute lysate in PBS (7 μg of lysate/100 μL of PBS).
6. Add 100 μL of diluted lysate to each well. Shake at room temperature for 60 min.
7. Wash as described in step 4.
8. Add 120 μL TBS to ELISA plate containing captured EGFR.
9. Dilute drugs/extracts 1:10 (unless specified otherwise) in TBS in 96-well polypropylene plates.
10. Add 13.5 μL diluted drugs/extracts to ELISA plate.
11. Incubate for 30 minutes while shaking at room temperature.
12. […] Incubate while shaking on a micro-liter plate shaker at room temperature for 5 min.
13. Stop Kinase reaction with the addition of 16.5 μL of 200 mM EDTA pH 8.0 to all wells.
14. Wash 4× with deionized water and twice with TBST.
15. Add 100 μL per well of anti-phosphotyrosine (1:3000 dilution in TBST). Incubate while shaking on a micro-liter plate shaker 30-45 minutes at room temperature while shaking.
16. Wash as described in step 4.
17. Add 100 μL per well of biosource Goat anti-rabbit IgG peroxidase conjugate (1:2000 dilution in TBST). Incubate 30 min. at room temperature while shaking.
18. Wash as described in step 4.
19. Add 100 μL of ABTS/H2O2 solution to each well.
20. Incubate 5 to 15 minutes while shaking. Remove any bubbles.
21. If necessary stop reaction with the addition of 10 μL of 0.2 M HCl/well.
22. Read assay on Dynatech MR7000 ELISA Plate Reader.
as §1

Values joined by “and” are separate entries in the source; they are usually repeats but may differ in a detail not shown here. Identical values can stand only once.

T1 sequence (P35918 20-1345): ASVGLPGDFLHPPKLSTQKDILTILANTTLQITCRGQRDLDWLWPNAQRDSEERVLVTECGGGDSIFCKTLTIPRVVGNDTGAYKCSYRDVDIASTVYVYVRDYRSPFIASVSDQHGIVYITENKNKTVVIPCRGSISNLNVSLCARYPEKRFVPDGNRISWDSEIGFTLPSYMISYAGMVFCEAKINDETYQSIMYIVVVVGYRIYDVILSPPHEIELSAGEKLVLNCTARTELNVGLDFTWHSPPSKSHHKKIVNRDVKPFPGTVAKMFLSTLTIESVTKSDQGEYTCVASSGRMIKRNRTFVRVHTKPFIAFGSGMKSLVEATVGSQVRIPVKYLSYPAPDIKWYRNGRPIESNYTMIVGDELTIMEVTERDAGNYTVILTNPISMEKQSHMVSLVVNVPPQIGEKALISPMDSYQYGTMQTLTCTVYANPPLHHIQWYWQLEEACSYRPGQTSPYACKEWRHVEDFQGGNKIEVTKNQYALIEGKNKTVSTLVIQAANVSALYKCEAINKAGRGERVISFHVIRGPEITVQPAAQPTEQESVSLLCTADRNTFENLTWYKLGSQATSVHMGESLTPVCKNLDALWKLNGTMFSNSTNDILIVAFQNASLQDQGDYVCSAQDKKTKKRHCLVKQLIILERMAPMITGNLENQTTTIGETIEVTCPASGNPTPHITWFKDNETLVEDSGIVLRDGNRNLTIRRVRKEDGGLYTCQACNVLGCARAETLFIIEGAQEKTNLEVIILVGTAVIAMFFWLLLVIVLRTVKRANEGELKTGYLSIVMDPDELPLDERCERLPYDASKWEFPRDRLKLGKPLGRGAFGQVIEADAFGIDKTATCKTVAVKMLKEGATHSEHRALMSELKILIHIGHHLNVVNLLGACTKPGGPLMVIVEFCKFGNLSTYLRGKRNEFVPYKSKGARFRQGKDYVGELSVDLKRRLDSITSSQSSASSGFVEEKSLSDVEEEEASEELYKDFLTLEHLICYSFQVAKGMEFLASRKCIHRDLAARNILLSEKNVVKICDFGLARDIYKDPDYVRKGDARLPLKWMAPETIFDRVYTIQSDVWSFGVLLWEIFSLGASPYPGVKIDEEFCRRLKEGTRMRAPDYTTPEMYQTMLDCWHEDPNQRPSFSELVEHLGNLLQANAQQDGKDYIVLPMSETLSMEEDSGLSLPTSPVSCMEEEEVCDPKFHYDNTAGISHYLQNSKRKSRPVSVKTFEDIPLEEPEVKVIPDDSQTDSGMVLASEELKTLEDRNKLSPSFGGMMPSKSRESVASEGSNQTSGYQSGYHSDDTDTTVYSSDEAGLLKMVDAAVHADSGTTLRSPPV
T2 sequence (P00533 25-1210): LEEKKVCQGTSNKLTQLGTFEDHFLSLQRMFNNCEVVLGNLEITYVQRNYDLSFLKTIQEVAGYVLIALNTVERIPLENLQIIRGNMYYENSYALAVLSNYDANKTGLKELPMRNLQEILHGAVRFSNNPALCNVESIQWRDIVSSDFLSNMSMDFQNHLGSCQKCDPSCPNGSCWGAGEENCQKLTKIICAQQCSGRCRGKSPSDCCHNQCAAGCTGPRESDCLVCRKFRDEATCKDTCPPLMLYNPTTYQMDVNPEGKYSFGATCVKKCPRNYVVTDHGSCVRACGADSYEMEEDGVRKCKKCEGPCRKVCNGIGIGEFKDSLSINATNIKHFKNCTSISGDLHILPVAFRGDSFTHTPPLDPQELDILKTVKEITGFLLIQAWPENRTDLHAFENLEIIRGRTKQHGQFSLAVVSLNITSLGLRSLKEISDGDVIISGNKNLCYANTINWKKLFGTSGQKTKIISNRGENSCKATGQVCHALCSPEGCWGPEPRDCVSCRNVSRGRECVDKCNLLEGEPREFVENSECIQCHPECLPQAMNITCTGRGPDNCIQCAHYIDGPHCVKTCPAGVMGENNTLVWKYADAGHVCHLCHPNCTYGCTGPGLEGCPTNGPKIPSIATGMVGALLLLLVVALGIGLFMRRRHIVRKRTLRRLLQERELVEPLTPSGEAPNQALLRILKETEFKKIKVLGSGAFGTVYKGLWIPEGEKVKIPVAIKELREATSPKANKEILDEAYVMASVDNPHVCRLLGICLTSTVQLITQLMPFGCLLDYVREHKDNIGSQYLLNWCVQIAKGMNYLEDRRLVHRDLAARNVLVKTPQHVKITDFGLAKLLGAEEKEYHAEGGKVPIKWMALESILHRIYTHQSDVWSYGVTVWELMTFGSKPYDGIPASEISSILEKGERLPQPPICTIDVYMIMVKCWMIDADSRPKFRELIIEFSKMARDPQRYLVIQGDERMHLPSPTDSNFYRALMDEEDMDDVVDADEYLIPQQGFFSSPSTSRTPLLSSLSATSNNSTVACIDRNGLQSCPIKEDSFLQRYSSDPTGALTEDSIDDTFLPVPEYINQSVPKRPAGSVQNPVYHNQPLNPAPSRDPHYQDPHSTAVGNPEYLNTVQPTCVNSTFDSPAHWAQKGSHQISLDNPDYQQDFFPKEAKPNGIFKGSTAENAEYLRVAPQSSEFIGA

The inhibition is how much of the control response was suppressed. A high value points to a strong effect. For orientation: IC50 means the concentration that inhibits the measured activity by half. With `Cc1ccc2c(c1)/C(=C/c1[nH]c3ccccc3c1C)C(=O)N2` [IN-001, 5-Methyl-3-(3-methyl-1H-indol-2-ylmethylene)-1,3-dihydro-indol-2-one], the inhibition at 100 µM at FLK-1 receptor worked out at 10.7%. The same compound gave an IC50 against EGFR protein above 100 µM.
At FLK-1 receptor, `Cc1c(/C=C2\C(=O)Nc3ccc(S(N)(=O)=O)cc32)[nH]c2ccccc12` [IN-002, 3-(3-Methyl-1H-indol-2-ylmethylene)-2-oxo-2,3-dihydro-1H-indole-5-sulfonic acid amide] returned an inhibition at 100 µM of 8.7%. Besides, the IC50 against EGFR protein is above 100 µM.
For the compound `Cc1c(/C=C2\C(=O)Nc3ccc(C(=O)O)cc32)[nH]c2ccccc12` [IN-005, 3-(3-Methyl-1H-indol-2-ylmethylene)-2-oxo-2,3-dihydro-1H-indole-5-carboxylic acid], the 50% inhibitory concentration (IC50) is 4.2 µM at FLK-1 receptor and 8.2 µM against EGFR protein.
In turn, `CC(=O)c1ccc2c(c1)C(=Cc1[nH]c3ccccc3c1C)C(=O)N2` [IN-006, 5-Acetyl-3-(3-methyl-1H-indol-2-ylmethylene)-1,3-dihydro-indol-2-one] showed an inhibition at 100 µM against FLK-1 receptor of 10.4%. Moreover, the IC50 on EGFR protein is > 100 µM and 30.8 µM.
`CC(=O)c1ccc2c(c1)C(=Cc1cc3ccccc3[nH]1)C(=O)N2` [IN-007, 5-Acetyl-3-(1H-indol-2-ylmethylene)-1,3-dihydro-indol-2-one] came in with an inhibition at 100 µM at FLK-1 receptor of 30%. On EGFR protein, this compound returned an IC50 above 100 µM.
In the same order, the values of `NS(=O)(=O)c1ccc2c(c1)/C(=C/c1cc3ccccc3[nH]1)C(=O)N2` [IN-008, 3-(1H-Indol-2-ylmethylene)-2-oxo-2,3-dihydro-1H-indole-5-sulfonic acid amide] are 23% and above 100 µM.
Regarding `Nc1ccc2c(c1)/C(=C/c1cc3ccccc3[nH]1)C(=O)N2` [IN-009, 5-Amino-3-(1H-indol-2-ylmethylene)-1,3-dihydro-indol-2-one], the figures for the IC50 on FLK-1 receptor and against EGFR protein were 1.53 µM and above 100 µM, respectively.
In the same order, the values of `O=C1Nc2ccc(C(=O)O)cc2/C1=C/c1cc2ccccc2[nH]1` [IN-010, 3-(1H-Indol-2-ylmethylene)-2-oxo-2,3-dihydro-1H-indole-5-carboxylic acid] are 2.1 µM and above 100 µM.
On FLK-1 receptor, `O=C1Nc2cc(Cl)ccc2/C1=C/c1cc2ccccc2[nH]1` [IN-011, 6-Chloro-3-(1H-indol-2-ylmethylene)-1,3-dihydro-indol-2-one] showed an inhibition at 100 µM of 6.1%. This compound returned an IC50 on EGFR protein above 100 µM.
In the same order, the values of `O=C1Nc2ccccc2/C1=C/c1cc2ccccc2[nH]1` [IN-012, 3-(1H-Indol-2-ylmethylene)-1,3-dihydro-indol-2-one] are 17.6% and above 100 µM.
In the same order, the values of `O=C1Nc2ccc(Cl)cc2/C1=C/c1cc2ccccc2[nH]1` [IN-013, 5-chloro-3-(1H-indol-2-ylmethylene)-1,3-dihydro-indol-2-one] are 17% and above 100 µM.
For `Cc1c(/C=C2\C(=O)Nc3ccccc32)[nH]c2ccccc12` [IN-016, 3-(3-Methyl-1H-indol-2-ylmethylene)-1,3-dihydro-indol-2-one] the same measures were 26% and above 100 µM.
On to `Cc1c(/C=C2\C(=O)Nc3ccc(Cl)cc32)[nH]c2ccccc12` [IN-017, 5-Chloro-3-(3-methyl-1H-indol-2-ylmethylene)-1,3-dihydro-indol-2-one], for which the inhibition at 100 µM against FLK-1 receptor was 20.4%. This compound displayed an IC50 at EGFR protein above 100 µM.
`Cc1c(/C=C2\C(=O)Nc3ccc(Br)cc32)[nH]c2ccccc12` [IN-018, 5-Bromo-3-(3-methyl-1H-indol-2-ylmethylene)-1,3-dihydro-indol-2-one] had an inhibition at 100 µM at FLK-1 receptor of 15.8%. Besides, at EGFR protein, the IC50 is 17.8 µM and > 100 µM.
`Cc1cccc2c1/C(=C/c1[nH]c3ccccc3c1C)C(=O)N2` [IN-019, 4-Methyl-3-(3-methyl-1H-indol-2-ylmethylene)-1,3-dihydro-indol-2-one] gave an inhibition at 100 µM at FLK-1 receptor of 10.7%. The compound also gave an IC50 against EGFR protein above 100 µM.
